Where two headings read alike, the source gives them in different places.
System: erythrocytes infected with 3D7 trophozoites
Format: cell-based, Plasmodium falciparum

Structure (SMILES): COc1ccc2c(c1)OC(O)(C(F)(F)C(F)(F)F)CC2=O (centres unmarked) [MMV007839]
- NADP+, Average (3hr): -0.3346
- Ornithine, Average (3hr): -0.1015
- Orotate, Average (3hr): -1.466
- Orotidine 5-Phosphate, Average (3hr): -1.489
- Orotidine, Average (3hr): -1.057
- PAEF, Average (3hr): -1.307
- PD, Average (3hr): 0.2119
- PDAV, Average (3hr): 0.3685
- PE, Average (3hr): 0.9141
- PEE, Average (3hr): -0.2135
- PHF, Average (3hr): 0.05129
- PPVQ, Average (3hr): -0.3492
- PVNF, Average (3hr): -0.8559
- PVQ, Average (3hr): 0.3164
- PVQA, Average (3hr): -1.408
- Pantothenate, Average (3hr): -0.2954
- Phenylalanine, Average (3hr): -0.1326
- Phosphoenolpyruvate, Average (3hr): 0.2604
- Pipecolate, Average (3hr): 0.1041
- Proline, Average (3hr): -0.09895
- Pyridoxine, Average (3hr): -0.07403
- Pyruvate, Average (3hr): 1.858
- Ribose-5-Phosphate, Average (3hr): 0.8813
- S-Adenosyl-L-homocysteine, Average (3hr): -0.314
- SDGLA, Average (3hr): -0.3844
- SFGD, Average (3hr): -0.2955
- Sedoheptulose-1/7-Phosphate, Average (3hr): 0.2199
- Serine, Average (3hr): 0.166
- Succinate Semialdehyde, Average (3hr): -0.7119
- Succinate, Average (3hr): -0.2462
- TNVK, Average (3hr): -1.745
- Threonine, Average (3hr): 0.01502
- Tryptophan, Average (3hr): -0.2359
- Tyrosine, Average (3hr): -0.01653
- UDP, Average (3hr): -0.7159
- UDP-N-acetyl-D-glucosamine, Average (3hr): 0.05247
- UDP-glucose, Average (3hr): -0.07837
- UMP, Average (3hr): -0.2624
- Uracil, Average (3hr): -0.6081
- Valine, Average (3hr): -0.194
- Xanthine, Average (3hr): -0.464
- dADP, Average (3hr): -1.193
- dATP, Average (3hr): -0.03116
- dCDP, Average (3hr): 0.3315
- dGMP, Average (3hr): 0.1661
- dTMP, Average (3hr): 0.1316
- dTTP, Average (3hr): -0.08156
- dUMP, Average (3hr): 1.365
- myo-Inositol, Average (3hr): -0.258
- sn-Glycerol 3-Phosphate, Average (3hr): 1.559
- sn-glycero-3-Phospho-1-inositol, Average (3hr): 0.1698
- 1-3 (2-3)-Bisphopshateglycerate, Average (6hr): 0.3636
- 2-Hydroxyglutarate, Average (6hr): -0.3824
- 2-Ketoglutarate, Average (6hr): -0.4713
- 3-Phoshoglycerate, Average (6hr): 0.02516
- 3-Phospho-serine, Average (6hr): -0.6364
- 4-Aminobutanoate, Average (6hr): 1.092
- 5-Phosphoribosyl-Pyrophosphate, Average (6hr): 0.556
- 6-Phosphogluconate, Average (6hr): -0.3794
- ADP, Average (6hr): -0.3027
- AMP, Average (6hr): -0.04039
- ATLS, Average (6hr): -0.1601
- ATP, Average (6hr): -0.3608
- Acetyl-CoA, Average (6hr): -0.9886
- Acetyl-L-alanine, Average (6hr): -0.3969
- Adenine, Average (6hr): -0.7079
- Arginine, Average (6hr): 0.2024
- Asparagine, Average (6hr): 0.205
- Aspartate, Average (6hr): -0.08675
- CDP, Average (6hr): -0.2824
- CDP-ethanolamine, Average (6hr): -0.09908
- CMP, Average (6hr): 0.2839
- CTP, Average (6hr): -0.5655
- Cholesteryl sulfate, Average (6hr): -0.1903
- Citrate, Average (6hr): -0.1627
- CoA, Average (6hr): -0.6499
- Cyclic AMP, Average (6hr): -1.349
- Cytidine, Average (6hr): 0.1751
- DALT, Average (6hr): 0.7209
- DEVG, Average (6hr): -0.06216
- DGLA, Average (6hr): 0.8365
- DLS, Average (6hr): -0.1236
- Deoxycytidine, Average (6hr): 1.626
- Dihydroorotate, Average (6hr): -1.004
- ESFG, Average (6hr): 0.5044
- EVGG, Average (6hr): -0.2203
- Erythrose 4-Phosphate, Average (6hr): -0.7036
- FAD, Average (6hr): -0.616
- FMN, Average (6hr): -0.6137
- Farnesyl diphosphate, Average (6hr): -0.2783
- Folate, Average (6hr): -0.4942
- Fructose-1-6-Bisphosphate, Average (6hr): 0.3974
- Fructose-6-Phosphate, Average (6hr): -0.1081
- GDP, Average (6hr): -0.8963
- GDP-mannose, Average (6hr): -1.076
- GMP, Average (6hr): -0.8795
- GTP, Average (6hr): -0.6956
- Geranylgeranyl pyrophosphate, Average (6hr): -0.7121
- Glucono-1-4-Lactone, Average (6hr): 2.219
- Glucose-6-Phosphate, Average (6hr): -0.5083
- Glutamate, Average (6hr): -0.02563
- Glutamine, Average (6hr): 1.089
- Glutathione Disulfide, Average (6hr): -0.1925
- Glutathione, Average (6hr): -0.4326
- Glyceraldehyde 3-Phosphate, Average (6hr): -1.148
- Glycerone Phosphate, Average (6hr): -0.3794
- HLD, Average (6hr): 0.5581
- HVDD, Average (6hr): 0.02571
- Histidine, Average (6hr): 1.263
- Homoserine, Average (6hr): 0.6347
- Hydroxy-L-proline, Average (6hr): -0.1227
- Hypoxanthine, Average (6hr): 0.2056
- IDP, Average (6hr): 0.2522
- IMP, Average (6hr): -0.2109
- Inosine, Average (6hr): 0.5174
- Isoleucine, Average (6hr): 0.1143
- LD, Average (6hr): 0.1248
- Lactate, Average (6hr): 2.505
- Leucine, Average (6hr): 0.06585
- Lysine, Average (6hr): 1.1316
- Malate, Average (6hr): -0.236
- Mannitol, Average (6hr): -0.1109
- Methionine, Average (6hr): -0.2224
- Myristic acid, Average (6hr): -0.7184
- N-Acetyl-glutamate, Average (6hr): -1.091
- N-Carbamoyl-L-Aspartate, Average (6hr): -1.386
- NAD+, Average (6hr): 0.1336
- NADH, Average (6hr): -2.783
- NADP+, Average (6hr): -0.3285
- Ornithine, Average (6hr): -0.4177
- Orotate, Average (6hr): -1.6355
- Orotidine 5-Phosphate, Average (6hr): -1.249
- Orotidine, Average (6hr): -0.6749
- PAEF, Average (6hr): 0.8061
- PD, Average (6hr): 1.197
- PDAV, Average (6hr): 1.2
- PE, Average (6hr): 1.699
- PEE, Average (6hr): 1.042
- PHF, Average (6hr): 0.9826
- PPVQ, Average (6hr): -0.2514
- PVNF, Average (6hr): 0.6194
- PVQ, Average (6hr): 1.502
- PVQA, Average (6hr): -0.1116
- Pantothenate, Average (6hr): -0.4384
- Phenylalanine, Average (6hr): 0.1437
- Phosphoenolpyruvate, Average (6hr): 0.09862
- Pipecolate, Average (6hr): 1.035
- Proline, Average (6hr): 0.2232
- Pyridoxine, Average (6hr): 0.219
- Pyruvate, Average (6hr): 2.1785
- Ribose-5-Phosphate, Average (6hr): 0.5462
- S-Adenosyl-L-homocysteine, Average (6hr): -0.1116
- SDGLA, Average (6hr): -0.7918
- SFGD, Average (6hr): -0.1482
- Sedoheptulose-1/7-Phosphate, Average (6hr): 0.1885
- Serine, Average (6hr): 0.02139
- Succinate Semialdehyde, Average (6hr): -0.438
- Succinate, Average (6hr): 0.1816
- TNVK, Average (6hr): -0.1213
- Threonine, Average (6hr): 0.6908
- Tryptophan, Average (6hr): -0.04867
- Tyrosine, Average (6hr): 0.1841
- UDP, Average (6hr): -0.5016
- UDP-N-acetyl-D-glucosamine, Average (6hr): -0.184
- UDP-glucose, Average (6hr): 0.0071
- UMP, Average (6hr): -0.08541
- Uracil, Average (6hr): -0.6376
- Valine, Average (6hr): 0.1675
- Xanthine, Average (6hr): -0.5471
- dADP, Average (6hr): -0.4329
- dATP, Average (6hr): 0.01926
- dCDP, Average (6hr): 0.5589
- dGMP, Average (6hr): -0.355
- dTMP, Average (6hr): 0.4667
- dTTP, Average (6hr): 0.06317
- dUMP, Average (6hr): 1.053
- myo-Inositol, Average (6hr): -0.254
- sn-Glycerol 3-Phosphate, Average (6hr): 1.275
- sn-glycero-3-Phospho-1-inositol, Average (6hr): 0.1242
- 1-3 (2-3)-diphopshateglycerate log2 ratio (+MMV007839/-MMV007839) (Av 1hr, 6 μM): 0.8283
- 2-Hydroxyglutarate log2 ratio (+MMV007839/-MMV007839) (Av 1hr, 6 μM): -0.2432
- 2-Ketoglutarate log2 ratio (+MMV007839/-MMV007839) (Av 1hr, 6 μM): -0.436
- 3-Phosho-D-glycerate log2 ratio (+MMV007839/-MMV007839) (Av 1hr, 6 μM): 0.004248
- 3-Phospho-serine log2 ratio (+MMV007839/-MMV007839) (Av 1hr, 6 μM): -0.2778
- 4-Aminobutanoate log2 ratio (+MMV007839/-MMV007839) (Av 1hr, 6 μM): 1.193
- 5-Phosphoribosyl-1-pyrophosphate log2 ratio (+MMV007839/-MMV007839) (Av 1hr, 6 μM): 0.3507
- ADP log2 ratio (+MMV007839/-MMV007839) (Av 1hr, 6 μM): -0.09347
- AMP log2 ratio (+MMV007839/-MMV007839) (Av 1hr, 6 μM): 0.1805
- ATLS log2 ratio (+MMV007839/-MMV007839) (Av 1hr, 6 μM): 0.06136
- ATP log2 ratio (+MMV007839/-MMV007839) (Av 1hr, 6 μM): -0.05715
- Acetyl-CoA log2 ratio (+MMV007839/-MMV007839) (Av 1hr, 6 μM): -0.4647
- Acetyl-L-alanine log2 ratio (+MMV007839/-MMV007839) (Av 1hr, 6 μM): 0.1907
- Adenine log2 ratio (+MMV007839/-MMV007839) (Av 1hr, 6 μM): -0.6208
- Arginine log2 ratio (+MMV007839/-MMV007839) (Av 1hr, 6 μM): 0.574
- Asparagine log2 ratio (+MMV007839/-MMV007839) (Av 1hr, 6 μM): 0.04802
- Aspartic Acid log2 ratio (+MMV007839/-MMV007839) (Av 1hr, 6 μM): 0.001665
- CDP log2 ratio (+MMV007839/-MMV007839) (Av 1hr, 6 μM): -0.01089
- CDP-ethanolamine log2 ratio (+MMV007839/-MMV007839) (Av 1hr, 6 μM): 0.2765
- CMP log2 ratio (+MMV007839/-MMV007839) (Av 1hr, 6 μM): 0.1684
- CTP log2 ratio (+MMV007839/-MMV007839) (Av 1hr, 6 μM): -0.2804
- Cholesteryl sulfate log2 ratio (+MMV007839/-MMV007839) (Av 1hr, 6 μM): -0.2972
- Citrate log2 ratio (+MMV007839/-MMV007839) (Av 1hr, 6 μM): -0.1229
- CoA log2 ratio (+MMV007839/-MMV007839) (Av 1hr, 6 μM): -0.4384
- Cyclic AMP log2 ratio (+MMV007839/-MMV007839) (Av 1hr, 6 μM): -0.8135
- Cytidine log2 ratio (+MMV007839/-MMV007839) (Av 1hr, 6 μM): -0.7749
- D-Glucono-1-4-lactone log2 ratio (+MMV007839/-MMV007839) (Av 1hr, 6 μM): 1.593
- DALT log2 ratio (+MMV007839/-MMV007839) (Av 1hr, 6 μM): -0.5028
- DEVG log2 ratio (+MMV007839/-MMV007839) (Av 1hr, 6 μM): 0.001555
- DGLA log2 ratio (+MMV007839/-MMV007839) (Av 1hr, 6 μM): -0.4525
- DLS log2 ratio (+MMV007839/-MMV007839) (Av 1hr, 6 μM): -0.423
- Deoxycytidine log2 ratio (+MMV007839/-MMV007839) (Av 1hr, 6 μM): 1.92
- Dihydroorotate log2 ratio (+MMV007839/-MMV007839) (Av 1hr, 6 μM): -0.5278

From paper PMC5298231, “The Malaria Parasite's Lactate Transporter PfFNT Is the Target of Antiplasmodial Compounds Identified in Whole Cell Phenotypic Screens” (PLoS Pathogens, 2017)
